Source: patent US11401278B2, “Macrocyclic indole derivatives” (The Broad Institute, Inc., priority 2017, dated 2022)
Where “and” joins values, the source holds several entries; their conditions need not be identical. Identical values can stand only once. Like-named read-outs stand apart in the source and are kept apart here.

What was measured:
BCL-XL = BCL-XL (Homo sapiens (Human), UniProt Q07817); test: Protein-protein interaction assay BCL-XL/Bad BH3 peptide (BCL-XL assay, TR-FRET); assay type: binding; conditions: His-BCL-XL / Bad BH3 peptide, median
Description: Assay 2 Protein-Protein Interaction Assay: BCL-XL/Bad BH3 Peptide (BCL-XL Assay)
The dose-dependent inhibition by the compounds described in this invention of the interaction between BCL-XL and the BH3 domain of Bad (both human) was determined using a steady state binding competition assay with time-resolved fluorescence energy transfer (TR-FRET) readout. For that purpose BCL-XL (amino acids 1-212, C-terminal fused to a hexahistidine (6×His) tag (SEQ ID 3) and a synthetic Bad BH3-derived peptide of sequence Biotin-PEG2-PEG2-NLWAAQRYGRELRR-Nle-SDEFVDSFKK-amide (SEQ ID 4) served as protein receptor and tracer ligand respectively. The recombinant BCL-XL protein (expressed in E. coli) was purchased from BPS Bioscience (San Diego, Calif., USA). The Bad BH3-derived peptide can be obtained from e.g. Biosyntan (Berlin, Germany).
In the assay 11 different concentrations of each compound (0.1 nM, 0.33 nM, 1.1 nM, 3.8 nM, 13 nM, 44 nM, 0.15 μM, 0.51 μM, 1.7 μM, 5.9 μM and 20 μM) were typically measured as duplicates in the same microtiter plate. For that, 100-fold concentrated DMSO solutions were prepared by serial dilutions (1:3.4) of a 2 mM stock solution in a clear, 384-well microtiter plate (Greiner Bio-One, Frickenhausen, Germany). From there, 50 nl were transferred in a dark test plate (Greiner Bio-One, Frickenhausen, Germany). The assay was initiated by addition of 2 μl of a 2.5-fold concentrated His-BCL-XL solution (usually for a 1 nM end concentration in 5 μl reaction volume) in aqueous assay buffer [50 mM Tris/HCl pH 7, 100 mM sodium chloride (NaCl), 50 mM potassium fluoride (KF), 0.005% Tween-20, 2 mM DTT, 0.1% bovine gamma globulin (BGG)] to the compounds in the assay plate. This was followed by a 10-minute incubation step at 22° C. for pre-equilibration of the putative complex between His-BCL-XL and the compounds. After that, 3 μl of a 1.67-fold concentrated solution (in assay buffer) consisting of Bad BH3-derived peptide (1 nM end concentration) and TR-FRET detection reagents [1.67 nM anti-His-Eu cryptate and 1.67 nM streptavidin-XL665 (both from Cisbio Bioassays, Codolet, France)], were added.
The mixture was incubated in the dark for one hour at 22° C. and then overnight at 4° C. The formation of BCL-XL/Bad complexes was determined by measuring the resonance energy transfer of the anti-His- Eu-cryptate antibody to the streptavidin-XL665 present in the reaction. For that purpose, the fluorescence emission at 620 nm and 665 nm after excitation at 330-350 nm was measured in a TR-FRET measuring instrument, for instance a Rubystar or a Pherastar (both from BMG Lab Technologies, Offenburg, Germany) or a Viewlux (Perkin-Elmer). The ratio of the emission at 665 nm and at 622 nm was used as indicator of the amount of BCL-XL/Bad complexes present.
The resulting data (ratio) were normalized, taking 0% inhibition as the mean value of control measurements (usually 32 data points) where all reagents were included. In this case 50 nl DMSO were used instead of compounds. A 100% inhibition corresponded to the mean value of control measurements (usually 32 data points) where all reagents except BCL-XL were included. IC50 values were determined by regression analysis based on a 4 parameter equation (minimum, maximum, IC50, Hill; Y=Max+(Min−Max)/(1+(X/IC50)^HiII) using the Screener Software (Genedata).

MV-4-11 = test: Antiproliferation assay (Assay 7), MV-4-11; assay type: cell-based; conditions: CellTiter-Glo, several values per example
Description: Assessment of the Anti-Proliferative Effect of Compounds in Different Cell Lines
The impact of compounds on the proliferation of different cell lines was assessed using the CellTiter-Glo® Luminescent Cell Viability reagent from Promega (G7573).
In parallel, cells were plated in a reference (day 0) plate for time zero determination.
Rim wells were excluded. The cells were incubated for 72 hours in a humidified incubator at 37° C. The day 0 plate was measured by adding 30 μL/well of CTG solution (CellTiter-Glo® Luminescent Cell Viability reagent, Promega G7573) to time zero wells in the reference plate followed by a 10 minutes incubation and luminescence reading at 0.1 ms. using the PHERAstar FS microplate reader (BMG Labtech).
After 72 hours incubation, the treated plates were measured in the same way as the day 0 plate mentioned above.

Chain of BCL-XL (Q07817 other isoform, or with tags, fused parts or gaps): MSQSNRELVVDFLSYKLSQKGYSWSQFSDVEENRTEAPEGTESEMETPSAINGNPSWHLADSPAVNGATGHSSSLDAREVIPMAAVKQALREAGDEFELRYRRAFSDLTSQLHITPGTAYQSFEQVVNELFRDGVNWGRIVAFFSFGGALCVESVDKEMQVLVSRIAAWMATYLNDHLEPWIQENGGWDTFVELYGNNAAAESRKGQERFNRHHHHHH

IC50 (BCL-XL)	Compound	also measured
> 20 µM	CCc1c2c(nn1C)C(CCC1CCOCC1)N(C)S(=O)(=O)CCCn1c(C(=O)O)c(CCCOc3cccc4cc(F)ccc34)c3ccc(Cl)c-2c31 (single isomer, unassigned; enantiomer 1) [Example 61, (+)-4-chloro-3-ethyl-7-{3-[(6-fluoronaphthalen-1-yl)oxy]propyl}-2,14-dimethyl-15-[2-(oxan-4-yl)ethyl]-13,13-dioxo-10,11,12,13,14,15-hexahydro-2H-13lambda^6-pyrazolo[3′,4′:4,5][1,2,8]thiadiazacycloundecino[6,7,8-hi]indole-8-carboxylic acid (Enantiomer 1)]	–
> 20 µM	Cc1c2c(nn1C)CN(CCN1CCOCC1)S(=O)(=O)CCCn1c(C(=O)O)c(CCCOc3cccc4ccccc34)c3cccc-2c31 (racemic) [Example 1, (rac)-2,3-Dimethyl-14-[2-(morpholin-4-yl)ethyl]-7-{3-[(naphthalen-1-yl)oxy]propyl}-13,13-dioxo-10,11,12,13,14,15-hexahydro-2H-13λ^6-pyrazolo[3′,4′:4,5][1,2,8]thiadiazacycloundecino-[6,7,8-hi]indole-8-carboxylic acid]	IC50 (MV-4-11; 72 hours, listed as 01, read-out: Antiproli MV-4-11 [M] IC50): 1.8e-05 M and 2.38e-05 M; IC50 (MV-4-11; Homo sapiens, MV4-11, 72 h, read-out: Antiproli MV-4-11 [M] IC50): 1.73e-05 M
> 20 µM	Cc1c2c(nn1C)CN(C)S(=O)(=O)CCCn1c(C(=O)O)c(CCCOc3cccc4ccccc34)c3ccc(Cl)c-2c31 (racemic) [Example 4, (rac)-4-Chloro-2,3,14-trimethyl-7-{3-[(naphthalen-1-yl)oxy]propyl}-13,13-dioxo-10,11,12,13,14,15-hexahydro-2H-13λ^6-pyrazolo[3′,4′:4,5][1,2,8]thiadiazacycloundecino-[6,7,8-hi]indole-8-carboxylic acid]	IC50 (MV-4-11; 72 hours, listed as 04, read-out: Antiproli MV-4-11 [M] IC50): 1.58e-06 M and 1.47e-06 M and 1.25e-06 M
> 20 µM	CCc1c2c(nn1C)CN(CCN1CCOCC1)S(=O)(=O)CCCn1c(C(=O)O)c(CCCOc3cccc4cc(F)ccc34)c3ccc(Cl)c-2c31 [Example 77, (rac)-13-chloro-12-ethyl-1-(3-((6-fluoronaphthalen-1-yl)oxy)propyl)-11-methyl-8-(2-morpholinoethyl)-5,6,9,11-tetrahydro-4H,8H-pyrazolo[3′,4′:4,5][1]thia[2,8]diazacycloundecino[6,7,8-hi]indole-2-carboxylic acid 7,7-dioxide]	–
> 20 µM	CCc1c2c(nn1C)CN(C)S(=O)(=O)CCCn1c(C(=O)O)c(CCCOc3cccc4cc(F)ccc34)c3ccc(F)c-2c31 (single isomer, unassigned; enantiomer 2) [Example 9, (−)-3-Ethyl-4-fluoro-7-{3-[(6-fluoronaphthalen-1-yl)oxy]propyl}-2,14-dimethyl-13,13-dioxo-10,11,12,13,14,15-hexahydro-2H-13λ^6-pyrazolo[3′,4′:4,5][1,2,8]thiadiazacycloundecino-[6,7,8-hi]indole-8-carboxylic acid (Enantiomer 2)]	IC50 (MV-4-11; 72 hours, listed as 09, read-out: Antiproli MV-4-11 [M] IC50): 1.98e-05 M
> 20 µM	Cc1c2c(nn1C)CNS(=O)(=O)CCCn1c(C(=O)O)c(CCCOc3cccc4cc(F)ccc34)c3ccc(Cl)c-2c31 (single isomer, unassigned; enantiomer 1) [Example 51, 4-chloro-7-{3-[(6-fluoronaphthalen-1-yl)oxy]propyl}-2,3-dimethyl-13,13-dioxo-10,11,12,13,14,15-hexahydro-2H-13lambda^6-pyrazolo[3′,4′:4,5][1,2,8]thiadiazacycloundecino[6,7,8-hi]indole-8-carboxylic acid (Enantiomer 1)]	–
19 µM	CCc1c2c(nn1C)C(CCC1CCOCC1)N(C)S(=O)(=O)CCCn1c(C(=O)O)c(CCCOc3cccc4cc(F)ccc34)c3ccc(Cl)c-2c31 (single isomer, unassigned; enantiomer 3) [Example 63, (+)-4-chloro-3-ethyl-7-{3-[(6-fluoronaphthalen-1-yl)oxy]propyl}-2,14-dimethyl-15-[2-(oxan-4-yl)ethyl]-13,13-dioxo-10,11,12,13,14,15-hexahydro-2H-13lambda^6-pyrazolo[3′,4′:4,5][1,2,8]thiadiazacycloundecino[6,7,8-hi]indole-8-carboxylic acid (Enantiomer 3)]	–
